Key:
[1] = system: Trypanosoma brucei brucei; test: Antitrypanosomal activity against Trypanosoma brucei brucei strain 427 assessed as growth inhibition at 25 uM; type: functional; settings: read-out: GI
[2] = system: Trypanosoma brucei brucei; test: Antitrypanosomal activity against infective form of Trypanosoma brucei brucei strain 427 assessed as growth inhibition; type: functional, organism-based
[3] = Selectivity index, ratio of EC50 for mouse J774 cells to EC50 for infective form of Trypanosoma brucei brucei strain 427; type: toxicity, cell-based; settings: read-out: Ratio EC50
J774 = test: Cytotoxicity against […] mouse J774 cells after 24 hrs by WST1 assay; type: cell-based; settings: J774, 24 h

| Compound | inhibition of growth at 25 µM [1] [%] | EC50 [2] [µM] | selectivity ratio [3] | EC50 (J774) [µM] |
| --- | --- | --- | --- | --- |
| CC[C@H](C)[C@@H]1NC(=O)c2coc(n2)[C@H]([C@@H](C)CC)NC(=O)c2coc(n2)[C@H]([C@@H](C)CC)NC(=O)c2coc1n2 | 13.5 | – | – | – |
| CN(C)c1ccc2nc3ccc(=[N+](C)C)cc-3sc2c1 [METHYLENE BLUE CATION] | – | 0.4 | – | – |
| CC[C@H](C)[C@H](NC(=O)c1csc(CNC(=O)OC(C)(C)C)n1)c1nc(C(=O)N[C@H](c2nc(C(=O)OC)co2)[C@@H](C)CC)co1 | 18.3 | – | – | – |
| CC[C@H](C)[C@H](NC(=O)c1csc([C@@H](NC(=O)OC(C)(C)C)[C@@H](C)CC)n1)c1nc(C(=O)OC)co1 | 41.1 | – | – | – |
| CC[C@H](C)[C@H](NC(=O)c1csc([C@@H](NC(=O)c2csc(CNC(=O)OC(C)(C)C)n2)[C@@H](C)CC)n1)c1nc(C(=O)OC)c(C)o1 | 79.1 | 6 | 150 | 915 |
| CCOC(=O)c1csc(CNC(=O)OC(C)(C)C)n1 | 26.4 | – | – | – |
| CC[C@H](C)[C@@H]1NC(=O)c2coc(n2)[C@H]([C@@H](C)CC)NC(=O)c2csc(n2)CNC(=O)c2coc1n2 | 16.2 | – | – | – |
| CC[C@H](C)[C@@H]1NC(=O)c2csc(n2)[C@H]([C@@H](C)CC)NC(=O)c2csc(n2)CNC(=O)c2nc1oc2C [MACROCYCLE] | 41.7 | – | – | – |
| CC[C@H](C)[C@H](NC(=O)c1csc([C@@H](NC(=O)c2csc(CNC(=O)OC(C)(C)C)n2)[C@@H](C)CC)n1)c1nc(C(=O)OC)co1 | 20.9 | – | – | – |
| CC[C@H](C)[C@@H]1NC(=O)c2csc(n2)[C@H]([C@@H](C)CC)NC(=O)c2csc(n2)CNC(=O)c2coc1n2 | 100 | 11.4 | 4.3 | 48.8 |
| CC[C@H](C)[C@H](NC(=O)c1csc(CNC(=O)OC(C)(C)C)n1)c1nc(C(=O)OC)cs1 | 11.5 | – | – | – |
| CC[C@H](C)[C@H](NC(=O)c1csc(CNC(=O)OC(C)(C)C)n1)c1nc(C(=O)OC)co1 | 8.1 | – | – | – |

— ChEMBL document CHEMBL3217733, “Synthesis of precursors and macrocycle analogs of aerucyclamides as anti-trypanosomal agents” (Medchemcomm, 2012)
